According to patent publication US20180273464A1, “SYNTHESIS AND IN VITRO ACTIVITY OF D-LACTIC ACID OLIGOMERS” (priority 2018, published 2018):

Assays:
[1] = Sequestration of L-lactate by D-lactic acid oligomers, tetrazolium indicator color test strips; details: for Tetrazolium indicator (L-lactic acid): room temperature, 2 minutes; for sequestration of L-lactate in vitro: summary statement
Procedure: Lactic acid concentration was measured by tetrazolium indicator color test strips (Accuvin, LLC, Napa, Calif.) from the reaction of L-lactic acid and […] in the presence of lactate dehydrogenase. Samples of D-lactic acid oligomers (n=2, n=3, n=4, n=5, and n=6) were weighed on truncated 100 microliter pipette tips. […] The reactions were carried out at room temperature for 2 minutes, then 20 microliters were applied to L-lactic acid test strips, and the results were read after 2 minutes.

normal fibroblasts = details: at a similar hydrogen ion concentration; cited from earlier work
[2] = earlier work (Goldberg, Weinberg 2017); cited from earlier work
HeLa cells = details: earlier work (Goldberg, Weinberg 2016, 2017); cited from earlier work
cultured leukemia cells = details: earlier work (Goldberg, Weinberg 2016, 2017); cited from earlier work
retinoblastoma cells = details: earlier work (Goldberg, Weinberg 2016, 2017); cited from earlier work
[3] = 5.0 mg oligomer in 40 microliters of 10 mM L-lactic acid

## CC(O)C(=O)OC(C)C(=O)OC(C)C(=O)OC(C)C(=O)OC(C)C(=O)O [D-lactic acid n = 5, D-lactic acid pentamer]
[1]; [3]
  Tetrazolium indicator (L-lactic acid): greater than 400 mg/L
[1]
  sequestration of L-lactate in vitro: did not sequester L-lactate

## CC(O)C(=O)OC(C)C(=O)OC(C)C(=O)OC(C)C(=O)O [D-lactic acid n = 4, D-lactic acid tetramer]
[1]; [3]
  Tetrazolium indicator (L-lactic acid): greater than 400 mg/L
[1]
  sequestration of L-lactate in vitro: did not sequester L-lactate

## C[C@@H](O)C(=O)O[C@H](C)C(=O)O[C@H](C)C(=O)O [D-lactic acid n = 3, D-lactic acid trimer]
[1]; [3]
  Tetrazolium indicator (L-lactic acid): greater than 400 mg/L
[1]
  sequestration of L-lactate in vitro: did not sequester L-lactate

## CC(O)C(=O)OC(C)C(=O)OC(C)C(=O)OC(C)C(=O)OC(C)C(=O)OC(C)C(=O)O [D-lactic acid n = 6, D-lactic acid hexamer]
[1]; [3]
  Tetrazolium indicator (L-lactic acid): greater than 400 mg/L
[1]
  sequestration of L-lactate in vitro: did not sequester L-lactate

## C[C@@H](O)C(=O)O[C@H](C)C(=O)O [D-lactic acid dimer]
Normal fibroblasts
  cytotoxicity to normal fibroblasts compared with L-lactic acid: less cytotoxic than L-lactic
[1]; 0.5 mg oligomer in 40 microliters of 10 mM L-lactic acid
  Tetrazolium indicator (L-lactic acid): 80 mg/L
[1]; 1.0 mg oligomer in 40 microliters of 10 mM L-lactic acid
  Tetrazolium indicator (L-lactic acid): no color change
[1]; 5.0 mg oligomer in 40 microliters of 10 mM L-lactic acid, result in words
  Tetrazolium indicator (L-lactic acid): no color change
[1]; 7.0 mg oligomer in 40 microliters of 10 mM L-lactic acid
  Tetrazolium indicator (L-lactic acid): no color change
[2]
  sequestration of L-lactate: “sequester or trap” L-lactate
HeLa cells
  killing of cultured HeLa cells: kill
Cultured leukemia cells
  killing of cultured leukemia cells: kill
Retinoblastoma cells
  killing of cultured retinoblastoma cells: kill
